The values that follow come from US11022604B2, “Dock derived compound against laminin receptor (37 LR) and uses thereof” (Purdue Research Foundation, priority 2017, dated 2021).

This experiment concerns the target T1, Peptide G (37 LR binding site for laminin, aa 161-180) (Homo sapiens, UniProt P08865).
T1 construct: purchased United Biosystems; host or cells: chemical synthesis
Description: Intrinsic tryptophan fluorescence binding assay, Peptide G. As to conditions: 50 μM Peptide G, titration 0.1 to 100 μM; read-out: EC50, reduction of intrinsic tryptophan fluorescence. The method, then: FIG. 4. Reduction of Tryptophan Fluorescence by C3. 50 μM peptide G or Scramble G was incubated with concentrations of C3 ranging from 100 nM to 100 μM. Intrinsic tryptophan fluorescence was quantified at 350 nm emission (270 nm excitation) and graphed as a function of C3 dose after subtracting baseline C3 fluorescence. GraphPad Prism was used to determine an ECso for tryptophan reduction as described in the method (n=3±SEM).
Cell Viability Screen. PC-3, Endo, TC2-Ras, SH-SY5Y, and LNCaP cells were seeded in 96-well plates at 1,500 cells per well using the Scepter cell counter (EMD Millipore). […] Cell viability was measured by using the cell counting kit-8 (CCK-8, Dojindo). […] CCK-8 absorbance was measured at 450 nm using a GloMax Multimode Reader (Promega). Readings were performed the day after seeding to normalize for variations in cell seeding and after 96 hours of compound treatment. After each reading, CCK-8 media was removed and replaced with media containing compound as described previously. […] As described previously, an initial baseline CCK-8 reading was performed at 24 hours post seeding to correct for variations in seeding density. First, 450 nm values for each well were subtracted from media only readings to correct for baseline absorbance. Then, the 96 hour readings were normalized to their respective 24 hour readings to control for seeding variation. […]

T1 sequence (P08865 161-180 limits assumed): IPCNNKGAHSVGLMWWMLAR

With `O=C(c1cc(F)cc2c1OCOC2)N1CCN(C2c3ccccc3-c3ccccc32)CC1` [Compound C3, [4-(9h-fluoren-9-yl)piperazino](6-fluoro-4h-1,3-benzodioxin-8-yl)methanone], the EC50 was found to be 16.1 µM.
